From patent publication US6770597B2, “Benzohydrazide derivatives as herbicides and desiccant compositions containing them” (Ishihara Sangyo Kaisha, Ltd., priority 2002, dated 2004)

Key:
Assay type in all cases: in vivo
[1] = test system: barnyardgrass (Echinochloa crus-galli, ECHCG); experiment: Greenhouse herbicide screen, post-emerge application, phytotoxicity rating; details: POST emergent, 14 days after application, scale 0-100
Source text: (§1) A standard greenhouse herbicide activity screening system was used to evaluate the herbicidal efficacy and crop safety of these test compounds. Seven broadleaf weed species including redroot pigweed (Amaranthus retrofiexus, AMARE), velvetleaf (Abutilon theophrasti, ABUTH), sicklepod (Cassia obtusifolia, CASOB), ivyleaf morningglory (Ipomoea hederacea, IPOHE), lambsquarters (Chenopodium album, CHEAL), common ragweed (Ambrosia artemisiifolia L., AMBEL), and cocklebur (Xanthium strumarium, XANST) were used as test species. Four grass weed species including green foxtail (Setaria viridis, SETVI), barnyardgrass (Echinochloa crus-galli, ECHCG), johnsongrass (Sorghum halepense, SORHA), and large crabgrass (Digitaria sanguinalis, DIGSA) were also used. In addition, four crop species, field corn (Zea mays L., var. Dekalb 535, CORN), soybean (Glycine max L., var. Pella 86, SOY), upland rice (Oryza sp., var.Cocodrie, RICE) and wheat (Triticum aestivum L.) were included.
(§2) All plants were grown in 10 cm square plastic pots which were filled with a sandy loam soil mix. For pre-emerge tests, seeds were planted one day prior to application of the test compounds. For post-emerge tests, seeds were planted 8-21 days prior to the test to allow emergence and good foliage development prior to application of the test substances. At the time of the post-emerge application, plants of all species were usually at the 2-3 leaf stage of development.
(§3) All test compounds were dissolved in acetone and applied to the test units in a volume of 187 l/ha. Test materials were applied at rates ranging from 15 g ai/ha to 1000 g ai/ha using a track sprayer equipped with a TJ8001E even flow flat fan spray nozzle. Plants were arranged on a shelf so that the top of the canopy (post-emerge) or top of the soil surface (pre-emerge) was 40-45 cm below the nozzle. Pressurized air was used to force the test solution through the nozzle as it was mechanically advanced (via electrically driven chain drive) over the top of all test plants/pots. This application simulates a typical commercial field herbicide application.
(§4) Pre-emergence tests were top watered immediately after treatment to incorporate the test materials, then routinely top-watered for normal growth. Post-emerge test units were always bottom-watered.
(§5) At 14 days after application of the test materials, phytotoxicity ratings were recorded. A rating scale of 0-100 was used as previously described in Research Methods in Weed Science, 2nd edition, B. Truelove, Ed., Southern Weed Science Society, Auburn University, Auburn, Ala., 1977. Briefly, “0” corresponds to no damage and “100” corresponds to complete death of all plants in the test unit. This scale was used both to determine efficacy against weed species and damage to crop species. Herbicide activity data for various compounds of this invention, which are shown by compound No. in Tables 1-12, are shown in Tables 13 and 14.

[2] = test system: cocklebur (Xanthium strumarium, XANST); experiment: as above; details: POST emergent, 14 days after application, scale 0-100
Source text: as §1, §2, §3, §4, §5

[3] = test system: common ragweed (Ambrosia artemisiifolia L., AMBEL); experiment: as above; details: POST emergent, 14 days after application, scale 0-100
Source text: as §1, §2, §3, §4, §5

[4] = test system: green foxtail (Setaria viridis, SETVI); experiment: as above; details: POST emergent, 14 days after application, scale 0-100
Source text: as §1, §2, §3, §4, §5

[5] = test system: ivyleaf morningglory (Ipomoea hederacea, IPOHE); experiment: as above; details: POST emergent, 14 days after application, scale 0-100
Source text: as §1, §2, §3, §4, §5

[6] = test system: johnsongrass (Sorghum halepense, SORHA); experiment: as above; details: POST emergent, 14 days after application, scale 0-100
Source text: as §1, §2, §3, §4, §5

[7] = test system: lambsquarters (Chenopodium album, CHEAL); experiment: as above; details: POST emergent, 14 days after application, scale 0-100
Source text: as §1, §2, §3, §4, §5

[8] = test system: large crabgrass (Digitaria sanguinalis, DIGSA); experiment: as above; details: POST emergent, 14 days after application, scale 0-100
Source text: as §1, §2, §3, §4, §5

[9] = test system: redroot pigweed (Amaranthus retrofiexus, AMARE); experiment: as above; details: POST emergent, 14 days after application
Source text: as §1, §2, §3, §4, §5

[10] = test system: sicklepod (Cassia obtusifolia, CASOB); experiment: as above; details: POST emergent, 14 days after application, scale 0-100
Source text: as §1, §2, §3, §4, §5

[11] = test system: velvetleaf (Abutilon theophrasti, ABUTH); experiment: as above; details: POST emergent, 14 days after application, scale 0-100
Source text: as §1, §2, §3, §4, §5

[12] = test system: field corn (Zea mays L., var. Dekalb 535, CORN); experiment: Greenhouse herbicide screen, post-emerge application, crop damage rating; details: POST emergent, 14 days after application, scale 0-100
Source text: as §1, §2, §3, §4, §5

[13] = test system: upland rice (Oryza sp., var.Cocodrie, RICE); experiment: as above; details: POST emergent, 14 days after application, scale 0-100
Source text: as §1, §2, §3, §4, §5

[14] = test system: barnyardgrass (Echinochloa crus-galli, ECHCG); experiment: Greenhouse herbicide screen, pre-emerge application, phytotoxicity rating; details: PRE emergent, 14 days after application, rating scale 0-100
Source text: as §1, §2, §3, §4, §5

[15] = test system: cocklebur (Xanthium strumarium, XANST); experiment: as above; details: PRE emergent, 14 days after application, rating scale 0-100
Source text: as §1, §2, §3, §4, §5

[16] = test system: common ragweed (Ambrosia artemisiifolia L., AMBEL); experiment: as above; details: PRE emergent, 14 days after application, rating scale 0-100
Source text: as §1, §2, §3, §4, §5

[17] = test system: green foxtail (Setaria viridis, SETVI); experiment: as above; details: PRE emergent, 14 days after application, rating scale 0-100
Source text: as §1, §2, §3, §4, §5

[18] = test system: ivyleaf morningglory (Ipomoea hederacea, IPOHE); experiment: as above; details: PRE emergent, 14 days after application, rating scale 0-100
Source text: as §1, §2, §3, §4, §5

[19] = test system: johnsongrass (Sorghum halepense, SORHA); experiment: as above; details: PRE emergent, 14 days after application, rating scale 0-100
Source text: as §1, §2, §3, §4, §5

[20] = test system: lambsquarters (Chenopodium album, CHEAL); experiment: as above; details: PRE emergent, 14 days after application, rating scale 0-100
Source text: as §1, §2, §3, §4, §5

[21] = test system: large crabgrass (Digitaria sanguinalis, DIGSA); experiment: as above; details: PRE emergent, 14 days after application, rating scale 0-100
Source text: as §1, §2, §3, §4, §5

[22] = test system: redroot pigweed (Amaranthus retrofiexus, AMARE); experiment: as above; details: PRE emergent, 14 days after application, rating scale 0-100
Source text: as §1, §2, §3, §4, §5

[23] = test system: sicklepod (Cassia obtusifolia, CASOB); experiment: as above; details: PRE emergent, 14 days after application, rating scale 0-100
Source text: as §1, §2, §3, §4, §5

[24] = test system: velvetleaf (Abutilon theophrasti, ABUTH); experiment: as above; details: PRE emergent, 14 days after application, rating scale 0-100
Source text: as §1, §2, §3, §4, §5

[25] = test system: field corn (Zea mays L., var. Dekalb 535, CORN); experiment: Greenhouse herbicide screen, pre-emerge application, crop damage rating; details: PRE emergent, 14 days after application, rating scale 0-100
Source text: as §1, §2, §3, §4, §5

[26] = test system: upland rice (Oryza sp., var.Cocodrie, RICE); experiment: as above; details: PRE emergent, 14 days after application, rating scale 0-100
Source text: as §1, §2, §3, §4, §5

CN1CCN(NC(=O)c2cc(-n3c(=O)cc(C(F)(F)F)n(C)c3=S)c(F)cc2Cl)CC1 [Compound 1-14]
10: phytotoxicity rating IPOHE ([18]; 63 g ai/ha)
100: phytotoxicity rating IPOHE ([5]; 63 g ai/ha) | phytotoxicity rating IPOHE ([5]; 250 g ai/ha) | phytotoxicity rating CHEAL ([20]; 63 g ai/ha) | phytotoxicity rating CHEAL ([20]; 250 g ai/ha) | phytotoxicity rating AMARE ([22]; 250 g ai/ha)
50: phytotoxicity rating AMBEL ([3]; 250 g ai/ha) | crop damage rating CORN ([12]; 250 g ai/ha) | phytotoxicity rating CASOB ([23]; 250 g ai/ha) | crop damage rating RICE ([26]; 250 g ai/ha)
65: phytotoxicity rating XANST ([15]; 250 g ai/ha) | phytotoxicity rating IPOHE ([18]; 250 g ai/ha)
55: phytotoxicity rating SETVI ([17]; 250 g ai/ha) | phytotoxicity rating DIGSA ([21]; 63 g ai/ha)
35: phytotoxicity rating ABUTH ([11]; 250 g ai/ha) | phytotoxicity rating AMBEL ([16]; 63 g ai/ha)
30: phytotoxicity rating AMARE ([9]; 250 g ai/ha, scale 0-100) | phytotoxicity rating ABUTH ([24]; 63 g ai/ha)
0: phytotoxicity rating ECHCO ([1]; 63 g ai/ha) | phytotoxicity rating ECHCO ([1]; 250 g ai/ha) | phytotoxicity rating AMBEL ([3]; 63 g ai/ha) | phytotoxicity rating SETVI ([4]; 63 g ai/ha) | phytotoxicity rating SETVI ([4]; 250 g ai/ha) | phytotoxicity rating SORHA ([6]; 63 g ai/ha) | phytotoxicity rating SORHA ([6]; 250 g ai/ha) | phytotoxicity rating CHEAL ([7]; 63 g ai/ha) | phytotoxicity rating DIGSA ([8]; 63 g ai/ha) | phytotoxicity rating DIGSA ([8]; 250 g ai/ha) | phytotoxicity rating AMARE ([9]; 63 g ai/ha, scale 0-100 (0 no damage, 100 complete death)) | phytotoxicity rating CASOB ([10]; 63 g ai/ha) | phytotoxicity rating CASOB ([10]; 250 g ai/ha) | phytotoxicity rating ABUTH ([11]; 63 g ai/ha) | crop damage rating CORN ([12]; 63 g ai/ha) | crop damage rating RICE ([13]; 63 g ai/ha) | crop damage rating RICE ([13]; 250 g ai/ha) | phytotoxicity rating ECHCG ([14]; 63 g ai/ha) | phytotoxicity rating SETVI ([17]; 63 g ai/ha) | phytotoxicity rating CASOB ([23]; 63 g ai/ha) | crop damage rating CORN ([25]; 63 g ai/ha) | crop damage rating CORN ([25]; 250 g ai/ha) | crop damage rating RICE ([26]; 63 g ai/ha)
95: phytotoxicity rating SORHA ([19]; 250 g ai/ha) | phytotoxicity rating AMARE ([22]; 63 g ai/ha)
90: phytotoxicity rating ABUTH ([24]; 250 g ai/ha)
70: phytotoxicity rating XANST ([2]; 63 g ai/ha) | phytotoxicity rating XANST ([2]; 250 g ai/ha) | phytotoxicity rating CHEAL ([7]; 250 g ai/ha) | phytotoxicity rating ECHCG ([14]; 250 g ai/ha) | phytotoxicity rating AMBEL ([16]; 250 g ai/ha) | phytotoxicity rating SORHA ([19]; 63 g ai/ha) | phytotoxicity rating DIGSA ([21]; 250 g ai/ha)
40: phytotoxicity rating XANST ([15]; 63 g ai/ha)
